Tests used:
Format in all cases: in vivo
[1] = test system: H/R zebrafish; assay: Cardiac function of hypoxia-reoxygenation (H/R) zebrafish; details: CoQ10=4.0 mg/L, reoxygenation 24 hours, vs H/R group
Method: (§1) The zebrafish experiments are conducted in accordance to the internationally accepted standards. The wild type zebrafish strain AB is provided by the Developmental Biology Platform of Chongqing Medical University. Using the Shanghai Haisheng zebrafish aquatic ecosystem, the temperature in the fish tank is 28.5° C., the water temperature is 28-30° C., the salinity is 0.03%-0.04%, the pH is 7.2-7.6, and the photoperiod is 14 h light-10 h dark.
Three-day post fertilization wild-type of zebrafish with normal development are used for the experiment. The zebrafish are divided into 4 groups, namely the control group, the H/R (Hypoxia-reoxygenation) group, the TC group (CoQ10=4.0 mg/L), and the CoQ10 group (CoQ10=4.0 mg/L), n=30. Fill the beaker with circulating water for fish breeding, and then fill the water with high purity nitrogen. At the same time, use dissolved oxygen meter to detect the oxygen concentration in the water. Stop filling nitrogen until the oxygen concentration is stable at 0.00 mg/L. The air in the bevel glass bottle is discharged with nitrogen, and the prepared hypoxic water is put into the bevel glass bottle. The juvenile zebrafish of 3 days are put into the bottle, the cap is tightened, the glass bottle is placed into a plastic sealed bag, and then the sealed bag is vacuumed to ensure that no air enters. The end point of hypoxia is that the young fish sank to the bottom and remained motionless for 1 minute. At the same time, the zebrafish bent its body, turned the glass bottle upside down and then put it flat. The zebrafish sank head down and vertically. Then, the zebrafish are taken out and put into aquaculture water or medicine solution prepared with aquaculture water. After reoxygenation for 24 hours, the heart function indexes of zebrafish are examined.
(§2) First, the zebrafish are placed at room temperature and counted the number of heart beats within 15 seconds under a microscope. Then, the heart rate is obtained by multiplying it by 4. Then the zebrafish are placed in a petri dish, fixed with 1% low-melting agar, and held in a lateral position (with the eyes on top of the segments and the tail at the same level as the body). Fifty-eight images are generated by using an inverted fluorescence microscope for five consecutive shots. The diastolic and systolic images are selected, and the length (a) and width (b) of the ventricles are measured. The volume (V) of the ventricles is calculated with the ellipsoidal volume formula, and the surface area (S) of the ventricles is calculated with the elliptical area formula. The stroke-volume (SV), ejection fraction (EF), and fractional area change (FAC), cardiac output (CO) of zebrafish are calculated. Ventricular volume (V)=4/3π(a/2) (b/2)^2; Stroke-volume (SV)=Vdiastolic−Vsystolic; Ejection Fraction (EF)=(Vdiastole−Vsystole)/Vdiastole; Ventricular surface area (S)=(a/2) (b/2)π; Fractional Area Change (FAC)=(Sdiastolic−Ssystolic)/Sdiastolic; Cardiac Output (CO)=Cardiac volume*heart rate.

[2] = test system: ISO-induced zebrafish; assay: Cardiac function of ISO-induced zebrafish myocardial injury model; details: ISO=0.02 mg/L, CoQ10=4.0 mg/L, 24 hours; vs ISO group
Method: as §1
(§3) Three-day post fertilization wild-type zebrafish with normal development are used for the experiment and divided them into 4 groups, namely the control group, the ISO group (ISO=0.02 mg/L), the TC group (CoQ10=4.0 mg/L), and the CoQ10 group (CoQ10=4.0 mg/L), 30 in each group; The zebrafish in the ISO group are immersed in the ISO solution prepared with embryo culture water for 24 hours, then taken out and recorded their heart rate under a microscope. The signs of successful ISO-induced myocardial injury in zebrafish are a significant decrease in heart rate and the formation of pericardial edema. The zebrafish in the TC and CoQ10 groups are respectively immersed in embryo breeding water containing ISO and TC or CoQ10, incubated for 24 hours and then taken out for photography under a microscope.
as §2

[3] = test system: ISO-induced zebrafish; assay: ISO-induced zebrafish pericardial edema (pericardial height); details: ISO=0.02 mg/L, CoQ10=4.0 mg/L, 24 hours; vs ISO group
Method: as §3
Images are used to measure the height of the pericardium, the distance between the front of the yolk sac and the top of the pericardium, as shown by the arrow in FIG. 3(A).

[4] = test system: SOD; assay: Superoxide dismutase (SOD) in ISO-induced zebrafish; details: ISO=0.02 mg/L, CoQ10=4.0 mg/L, 24 hours; vs ISO group
Method: as §3
(§4) The detection of SOD and LDH are carried out according to the instructions of the kits, which are purchased from NanJing JianCheng Bioengineering Institute with the article numbers of A001-3, A020-2 and A019-2-1, respectively.

[5] = test system: LDH; assay: Lactate dehydrogenase (LDH) in ISO-induced zebrafish; details: ISO=0.02 mg/L, CoQ10=4.0 mg/L, 24 hours; vs ISO group
Method: as §3, §4

[6] = test system: brain natriuretic peptide (BNP); assay: BNP gene expression by RT-PCR in ISO-induced zebrafish; details: ISO=0.02 mg/L, CoQ10=4.0 mg/L, 24 hours; vs ISO group
Method: as §3
(§5) Zebrafish RNA extraction, reverse transcription and quantitative amplification are performed in accordance with the instructions of the kit obtained from Nanjing Vazyme Biotech Co., Ltd, the article numbers are RC101, R223-01 and Q711-02.
(§6) ANP refers to atrial natriuretic peptide, BNP refers to brain natriuretic peptide, GAPDH refers to glyceraldehyde 3-phosphate dehydrogenase.

[7] = test system: atrial natriuretic peptide (ANP); assay: ANP gene expression by RT-PCR in ISO-induced zebrafish; details: ISO=0.02 mg/L, CoQ10=4.0 mg/L, 24 hours; vs ISO group
Method: as §3, §5, §6

For COC1=C(OC)C(=O)C(C/C=C(\C)CC/C=C(\C)CC/C=C(\C)CC/C=C(\C)CC/C=C(\C)CC/C=C(\C)CC/C=C(\C)CC/C=C(\C)CC/C=C(\C)CCC=C(C)C)=C(C)C1=O [CoQ10, Coenzyme Q10], the “cardiac output (CO)” value [1] was “significantly increase”, the “ejection fraction (EF)” value [1] was “significantly increase” and the “fractional area change (FAC)” value [1] was “significantly increase”. For the same compound, the heart rate [1] was “no significant effect”, the “stroke volume (SV)” value [1] was “significantly increase” and the “cardiac output (CO)” value [2] was “significantly increase”. The “ejection fraction (EF)” value [2] was “significantly increase”, the “fractional area change (FAC)” value [2] was “significantly increase” and the heart rate [2] was “no significant effect”. For the same compound, the “stroke volume (SV)” value [2] was “significantly increase”, the “pericardial edema (pericardial height)” value [3] was “no effect” and the “activity of SOD” value [4] was “no significantly effect”. For the same compound, the “activity of LDH” value [5] was “reduced the activity of LDH, the result is insignificant”, the “excessive expression of BNP” value [6] was “significantly reduce” and the “excessive expression of ANP” value [7] was “significantly reduce”.

From patent US20230111558A1, “Composition for Preventing and Treating Heart Dysfunction and its Application Thereof” (21ST CENTURY HERBS & HEALTH, priority 2021, published 2023)
